Experimental data taken from patent publication US7579515B2, “Increasing gamete production with a gene switch” (North Carolina State University, priority 2003, dated 2009).

Tested on: transgenic mice carrying FSHβLCR/tet receptor plus tet operator/FSHβ gene
Assay: Ovulation (oocyte count) in FSHβ-switch transgenic female mice fed Dox
Type: in vivo
Excerpt: Female mice (7 weeks old) were fed rat chow±Dox (6 gm/kg) and were put with males 6 days after feeding began. Females were checked for copulation plugs am and pm and were euthanized the morning plugs were found; uteri and ovaries were excised from each mouse and oocytes were freed from the ampulla and separated from cumulus cells with hyaluronidase (FIG. 3B). Oocytes were counted (see FIG. 3A). All Dox-fed mice ovulated within 5 days of male exposure except one (19 days) and it produced 90 oocytes. The sheep FSHβLCR was isolated along with its promoter in accordance with standard techniques and operatively associated with a new structural gene, the tet receptor, so that mice carrying this transgene expressed the tet receptor exclusively and strongly in pituitary gonadotropes. Linked to the […] was a second gene unit: the tet operator operatively associated with the structural gene for sheep FSHβ. […] The increase in FSHβ production created more FSH which increased ovulation by 2.4-fold (from an average of 12±0.5 to 29±4). Ovulation of this magnitude is matched only by time-consuming treatments with costly fertility hormones.

With `C[C@H]1c2cccc(O)c2C(=O)C2=C(O)[C@]3(O)C(=O)C(C(N)=O)=C(O)[C@@H](N(C)C)[C@@H]3[C@@H](O)[C@@H]21` [doxycycline] the “time to ovulation after male exposure” value (all Dox-fed mice except one (19 days)) was ≤ 5 days, the “oocytes produced by a single mouse” value (the one Dox-fed mouse that ovulated at 19 days of male exposure, oocytes appeared normal) was 90 and the “oocytes ovulated, average” value (transgenic female mice, 7 weeks old, rat chow with Dox 6 gm/kg, put with males 6 days after feeding began, without Dox average 12±0.5) was 29±4. The increase in ovulation (transgenic mice, ligand administered vs not administered) was 2.4 fold.
